Test [1] deals with P. aeruginosa strain PAKMS591. Kind of test: Epifluorescence microscopy of cells bound to stainless steel, strain PAKMS591. In kind it is cell-based, Pseudomonas aeruginosa. Particulars: 60 min 37° C. The method, then:
(§1) FIG. 2. Epifluorescence microscopy of stainless steel after binding of P. aeruginosa strains PAK (panels a, b, and c), PAO (panels d, e, and f), K122-4 (panels g, h, and i), KB7 (panels j, k, and l), PAKNP (panels m, n, and o) and PAKMS591 (panels p, q, and r). Viable cells were allowed to incubate directly (panels a, d, g, j, m, and p) with a stainless steel grade 304 surface for 60 min at 37° C. and washed 5 times with 10 mM PBS pH 7.4 containing 0.05% BSA. The cells were then stained using acrydine orange and a 40× objective field was photographed with a Leitz Laborlux microscope equipped with epifluorescent illumination and a Wild automatic exposure 35 mm camera system. Note that bound Pseudomonas cells are stained orange while green fluorescence indicates non-specific interaction of the fluorochrome with the surface. P. aeruginosa strains PAK, PAO, K122-4, KB7, PAKNP, and PAKMS591 were incubated with the synthetic peptide PAK(128-144d)ox (panels b, e, h, k, n, and q respectively) or with synthetic peptide PAK(134-140) (panels c, f, i, l, o, and r respectively).
(§2) Stainless steel plates, prepared and utilized in bacterial binding studies as described above, were incubated in 1 mM Acridine Orange stain for one minute, and thoroughly rinsed with distilled water. […] Micrographs were recorded with Kodak Colormax 35 mm film, processed and digitally scanned immediately after film processing.

In test [2] the test system is P. aeruginosa strain PAKNP. Description: Epifluorescence microscopy of cells bound to stainless steel, strain PAKNP. In kind it is cell-based, Pseudomonas aeruginosa. The settings on record: 60 min 37° C. The protocol:
as §1, §2

The test system of test [3] is P. aeruginosa strain K122-4. Kind of test: Epifluorescence microscopy of cells bound to stainless steel, strain K122-4. The settings on record: PAK(128-144)ox 51 nM; PAK(134-140) 100 μg/ml; 60 min 37° C. It is filed as cell-based, Pseudomonas aeruginosa. The method, then: as §1, §2
Test [4] deals with P. aeruginosa strain PAO. Kind of test: Epifluorescence microscopy of cells bound to stainless steel, strain PAO. Particulars: PAK(128-144)ox 51 nM; PAK(134-140) 100 μg/ml; 60 min 37° C. In kind it is cell-based, Pseudomonas aeruginosa. The method, then:
as §1, §2

The test system of test [5] is biotinylated viable PAKwt cells. In kind it is cell-based, Pseudomonas aeruginosa.
For test [6], the system named is P. aeruginosa strain PAK. Kind of test: Epifluorescence microscopy of cells bound to stainless steel, strain PAK. It is filed as cell-based, Pseudomonas aeruginosa. Particulars: PAK(128-144)ox 51 nM; PAK(134-140) 100 μg/ml; 60 min 37° C. The method, then:
as §1, §2

Test [7] relates to respiratory epithelial cells. The settings on record: Yu et al., 1996; cited from earlier work.
Test [8] relates to P. aeruginosa strain KB7. Kind of test: Epifluorescence microscopy of cells bound to stainless steel, strain KB7. In kind it is cell-based, Pseudomonas aeruginosa. Particulars: PAK(128-144)ox 51 nM; PAK(134-140) 100 μg/ml; 60 min 37° C. The protocol:
as §1, §2

For test [9], the target named is biotinylated purified PAK pili.

Entries after “also recorded” stand apart in the source; their conditions may differ.

biotinylated purified PAK pili, sequence (P02973 7-150): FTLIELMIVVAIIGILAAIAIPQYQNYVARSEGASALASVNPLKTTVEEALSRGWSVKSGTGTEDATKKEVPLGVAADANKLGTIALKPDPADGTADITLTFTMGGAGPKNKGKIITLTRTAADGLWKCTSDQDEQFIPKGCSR

Turning to “Ac-D-E-Q-F-I-P-K-amide (Ac-DEQFIPK-NH2) [PAK(134-140)]”, the “effect on binding of strain PAKMS591 (fliC-) to stainless steel (microscopy)” value in test [1] was “did not inhibit the binding”. Besides, the “effect on binding of strain PAKNP (pilA-) to stainless steel (microscopy)” value in test [2] is “did not inhibit the binding”. The “effect on binding of strain K122-4 to stainless steel (microscopy)” value in test [3] was “did not inhibit the binding; also recorded: nor did it inhibit the binding; also recorded: minimal effect”. In addition, the “effect on binding of strain PAO to stainless steel (microscopy)” value in [4] is “did not inhibit the binding; also recorded: minimal effect”. In addition, in test [5], the “effect of peptide on binding of biotinylated PAKwt cells to stainless steel” value was “do not inhibit cell binding; also recorded: did not inhibit”. Moreover, in [6], the “effect on binding of strain PAK to stainless steel (microscopy)” value was “did not inhibit the binding; also recorded: minimal effect”. Further, the “affinity for epithelial cells / mucosal cell surface receptors” value in [7] is “low affinity”. Further, the “effect on binding of strain KB7 to stainless steel (microscopy)” value in test [8] is reported as “did not inhibit the binding; also recorded: nor did it inhibit the binding; also recorded: minimal effect”.
With “Ac-KCTSDQDEQFIPKGCSK-OH (cysteine pairing not given here) [PAK(128-144)ox]”, in [1], the “effect on binding of strain PAKMS591 (fliC-) to stainless steel (microscopy)” value is on record as “reduced the binding; also recorded: inhibited the binding”. Moreover, the “effect on binding of strain PAKNP (pilA-) to stainless steel (microscopy)” value in [2] is “did not reduce the binding; also recorded: had no effect”. Further, the “effect on binding of strain K122-4 to stainless steel (microscopy)” value in test [3] is reported as “reduced the binding; also recorded: substantially inhibits; also recorded: effectively inhibits the adherence”. Further, in test [4], the “effect on binding of strain PAO to stainless steel (microscopy)” value is recorded as “reduced the binding; also recorded: substantially inhibits; also recorded: effectively inhibits the adherence”. Further, the results for the Ki in test [5] (read-out: apparent Ki of the peptide inhibition of PAKwt binding to steel) and in [9] (read-out: apparent Ki of the peptide inhibition of PAK pilus binding to steel) were approximately 4 nM and approximately 0.2 nM, respectively. Also, the “effect on binding of strain PAK to stainless steel (microscopy)” value in test [6] is recorded as “reduced the binding”. Also, the “effect on binding of strain KB7 to stainless steel (microscopy)” value in test [8] was “reduced the binding; also recorded: substantially inhibits; also recorded: effectively inhibits the adherence”.
As to “Ac-PQYQNYVARSEGASALASVNPLKTTVEEADP-OH [PAK(22-52)]”, the “effect of peptide on binding of biotinylated PAKwt cells to stainless steel” value in [5] is reported as “do not inhibit cell binding”. The “effect of peptide on binding of biotinylated PAK pili to stainless steel” value in test [9] was “do not inhibit the binding of pili”.
In the same order, the values of “Ac-T-L-T-R-T-A-A-D-G-OH (Ac-TLTRTAADG-OH) [PAK(117-125)]” are “appears to enhance cell binding to steel rather than inhibiting” and “appears to enhance the binding of pili to steel rather than inhibiting”.

Source of the values: patent US8454977B2, “Non-toxic biofilm inhibitor” (priority 2005, dated 2013).
